Data on one compound can be found in patent US20070027130A1, “Tricyclic 6-alkylidene-penem beta-lactamase inhibitors and beta-lactam antibiotic combination: a broad spectrum antibiotic” (priority 2005, published 2007).

≈ marks a conversion by molar mass, not a printed value.

Holding throughout (assay): MIC microbroth dilution
Common to all, as to assay type: cell-based
Background: Dilution methods test growth across graded concentrations, often in twofold steps.

The test system of experiment [1] is K. pneumoniae GC 7635 SHV-1, KPC2. The note with it: Klebsiella pneumoniae, β-lactamase class A, A (Cb'ase), MHBII, 35° C. 18 hr, read-out: Minimal Inhibitory Concentration. As to the method: (§1) The in vitro activities of the antibiotics were determined by the microbroth dilution method as recommended by the National Committee for Clinical Laboratory Standards (NCCLS). (NCCLS. 2000. Methods for Dilution Antimicrobial Susceptibility Tests for Bacteria That Grow Aerobically; Approved Standards: M7-A5, vol. 19. National Committee for Clinical Laboratory Standards, Villanova, Pa.). Mueller-Hinton II broth (MHBII) (BBL Cockeysville, Md.), was used for the testing procedure. […]. The plates were incubated for 18-22 hours at 35 C. in ambient air.

Experiment [2] concerns K. pn GC 2391 (pl 5.4; 5.6; 7.6; 8.7 B-lactamases). As to conditions: Klebsiella pneumoniae, β-lactamase class A, A (ESBL), C (presumed), MHBII, 35° C. 18 hr, read-out: Minimal Inhibitory Concentration. On the procedure: as §1
Experiment [3] relates to P. aeruginosa PT 9587 PTZ-R. As to conditions: Pseudomonas aeruginosa, PT9587PTZR; P. aeruginosa PT 9587, piperacillin-tazobactam-resistant; MHBII, 35° C. 18 hr; read-out: Minimal Inhibitory Concentration. On the procedure:
as §1

The subject of experiment [4] is E. coli GC 6197 (TEM-1 + SHV-7 + CMY-2). The note with it: Escherichia coli, β-lactamase class A, A (ESBL), C, MHBII, 35° C. 18 hr, read-out: Minimal Inhibitory Concentration. On the procedure:
as §1

Experiment [5] relates to E. coli GC 2021 (TEM-10 + pl 6.3). The note with it: Escherichia coli, 18 h, read-out: Minimal Inhibitory Concentration. As to the method:
as §1

Experiment [6] deals with K. pn GC 6488 (TEM-1 + SHV-5 + SHV-7). As to conditions: Klebsiella pneumoniae, β-lactamase class A, A (ESBL), MHBII, 35° C. 18 hr, read-out: Minimal Inhibitory Concentration. As to the method:
as §1

The subject of the next experiment is E. coli ATCC 35218 TEM-1. As to conditions: Escherichia coli, ATCC35218, 18 h, read-out: Minimal Inhibitory Concentration. As to the method: as §1
A further experiment deals with K. pn GC 1832 (SHV-4). As to conditions: Klebsiella pneumoniae, β-lactamase class A (ESBL), MHBII, 35° C. 18 hr, read-out: Minimal Inhibitory Concentration. As to the method: as §1
For experiment [7], the system named is S. marcescens GC 1781 (Sme-1 + AmpC). The note with it: Serratia marcescens, β-lactamase class A (Cb'ase), C, MHBII, 35° C. 18 hr, read-out: Minimal Inhibitory Concentration. As to the method:
as §1

The subject of experiment [8] is P. aeruginosa GC 1763 AmpC-inducible. The note with it: Pseudomonas aeruginosa, β-lactamase class C, MHBII, 35° C. 18 hr, read-out: Minimal Inhibitory Concentration. As to the method: as §1
For experiment [9], the system named is K. pneumoniae GC 7821 DHA 1. As to conditions: Klebsiella pneumoniae, GC7821DHA1, β-lactamase class C, MHBII, 35° C. 18 hr, read-out: Minimal Inhibitory Concentration. As to the method:
as §1

Experiment [10] deals with A. baumannii GC 7685 TEM-1. As to conditions: Acinetobacter baumannii, GC7685TEM1, 18 h, read-out: Minimal Inhibitory Concentration. As to the method: as §1
Experiment [11] relates to C. freundii GC 4164 Inducible AmpC. The note with it: Citrobacter freundii, β-lactamase class C, MHBII, 35° C. 18 hr, read-out: Minimal Inhibitory Concentration. As to the method:
as §1

A further experiment relates to E. coli GC 2894 (AmpC). As to conditions: Escherichia coli, β-lactamase class C, MHBII, 35° C. 18 hr, read-out: Minimal Inhibitory Concentration. On the procedure:
as §1

Experiment [12] concerns E. coli ATCC 25922 (none). As to conditions: Escherichia coli, ATCC25922, β-lactamase class none, MHBII, 35° C. 18 hr, read-out: Minimal Inhibitory Concentration. On the procedure:
as §1

Experiment [13] has as its system K. pn GC 6657 (TEM-1 + SHV-27). The note with it: Klebsiella pneumoniae, β-lactamase class A, A (ESBL), MHBII, 35° C. 18 hr, read-out: Minimal Inhibitory Concentration. On the procedure:
as §1

Experiment [14] deals with A. baumannii GC 7684 AmpC, AmpC. As to conditions: Acinetobacter baumannii, β-lactamase class C, MHBII, 35° C. 18 hr, read-out: Minimal Inhibitory Concentration. On the procedure:
as §1

Experiment [15] has as its system K. pn GC 1554 (TEM-1 + TEM-26 + SHV-1). As to conditions: Klebsiella pneumoniae, β-lactamase class A, A (ESBL), MHBII, 35° C. 18 hr, read-out: Minimal Inhibitory Concentration. As to the method:
as §1

Experiment [16] relates to P. aeruginosa PT 8411 PTZ-R*. As to conditions: Pseudomonas aeruginosa; P. aeruginosa PT 8411, piperacillin-tazobactam-resistant; MHBII, 35° C. 18 hr; read-out: Minimal Inhibitory Concentration. As to the method: as §1
The test system of experiment [17] is P. aeruginosa PT 8503 PTZ-R. As to conditions: Pseudomonas aeruginosa, PT8503PTZR; P. aeruginosa PT 8503, piperacillin-tazobactam-resistant; MHBII, 35° C. 18 hr; read-out: Minimal Inhibitory Concentration. As to the method:
as §1

In another experiment the test system is E. coli GC 2253 (IRT-2). As to conditions: Escherichia coli, 18 h, read-out: Minimal Inhibitory Concentration. On the procedure: as §1
Experiment [18] relates to E. aerogenes 1697-MP GC 7845 AmpC. The note with it: Klebsiella aerogenes; E. aerogenes GC 7845; β-lactamase class C; MHBII, 35° C. 18 hr; read-out: Minimal Inhibitory Concentration. As to the method:
as §1

Experiment [19] relates to K. pn GC 1507 (TEM-9 + SHV-1). The note with it: Klebsiella pneumoniae, β-lactamase class A, A (ESBL), MHBII, 35° C. 18 hr, read-out: Minimal Inhibitory Concentration. On the procedure: as §1
Experiment [20] has as its system E. cloacae PT 1494 Inducible AmpC. As to conditions: Enterobacter cloacae, β-lactamase class C, MHBII, 35° C. 18 hr, read-out: Minimal Inhibitory Concentration. On the procedure: as §1

Take `CO/N=C(\C(=O)N[C@@H]1C(=O)N2C(C(=O)[O-])=C(C[N+]3(C)CCCC3)CS[C@H]12)c1csc(N)n1` [Cefepime]: the MIC was greater than 16 µg/mL in [1]; 8 µg/mL (≈ 16.6 µM) in experiment [2]; 4 µg/mL in experiment [3]; greater than 16 µg/mL in experiment [4]; 8 µg/mL (≈ 16.6 µM) in experiment [5]; 8 µg/mL (≈ 16.6 µM) in [6]. The MIC was 0.03 µg/mL (≈ 0.0624 µM) with E. coli ATCC 35218 TEM-1; 2 µg/mL (≈ 4.16 µM) in the experiment on K. pn GC 1832 (SHV-4); 0.06 µg/mL (≈ 0.125 µM) in [7]; 2 µg/mL (≈ 4.16 µM) in experiment [8]; 0.06 µg/mL (≈ 0.125 µM) in [9]; greater than 16 µg/mL in experiment [10]. In addition, the MIC was 2 µg/mL (≈ 4.16 µM) in experiment [11]; 2 µg/mL (≈ 4.16 µM) in the experiment on E. coli GC 2894 (AmpC); 0.03 µg/mL (≈ 0.0624 µM) in experiment [12]; 0.12 µg/mL (≈ 0.25 µM) in experiment [13]; 16 µg/mL (≈ 33.3 µM) in [14]; 8 µg/mL (≈ 16.6 µM) in experiment [15]. Besides, the MIC in experiment [16] amounted to 16 µg/mL; in [17] it was 8 µg/mL; in the experiment with E. coli GC 2253 (IRT-2) it was 0.03 µg/mL (≈ 0.0624 µM); in experiment [18], 0.5 µg/mL (≈ 1.04 µM); in experiment [19], 8 µg/mL (≈ 16.6 µM); in [20], 0.25 µg/mL (≈ 0.52 µM).
